In patent US10407404B2, “Physical form of a SGR modulator” (ASTRAZENECA AB, priority 2016, dated 2019):

What was measured:
Type in all cases: cell-based
[1] = molecular target: T1, human glucocorticoid receptor (GR) (Homo sapiens, UniProt P04150); assay: GRE Agonist Assay (ChagoK1 18:7:2 s4/GRE MMTV-GRE-LacZ reporter cell line)
T1 construct: endogenous in cells; host or cells: ChagoK1 18:7:2 s4/GRE (human bronchogenic carcinoma ChaGo K1, ATCC HTB 168, stably carrying MMTV-GRE-LacZ reporter)
T1 sequence (P04150 1-777): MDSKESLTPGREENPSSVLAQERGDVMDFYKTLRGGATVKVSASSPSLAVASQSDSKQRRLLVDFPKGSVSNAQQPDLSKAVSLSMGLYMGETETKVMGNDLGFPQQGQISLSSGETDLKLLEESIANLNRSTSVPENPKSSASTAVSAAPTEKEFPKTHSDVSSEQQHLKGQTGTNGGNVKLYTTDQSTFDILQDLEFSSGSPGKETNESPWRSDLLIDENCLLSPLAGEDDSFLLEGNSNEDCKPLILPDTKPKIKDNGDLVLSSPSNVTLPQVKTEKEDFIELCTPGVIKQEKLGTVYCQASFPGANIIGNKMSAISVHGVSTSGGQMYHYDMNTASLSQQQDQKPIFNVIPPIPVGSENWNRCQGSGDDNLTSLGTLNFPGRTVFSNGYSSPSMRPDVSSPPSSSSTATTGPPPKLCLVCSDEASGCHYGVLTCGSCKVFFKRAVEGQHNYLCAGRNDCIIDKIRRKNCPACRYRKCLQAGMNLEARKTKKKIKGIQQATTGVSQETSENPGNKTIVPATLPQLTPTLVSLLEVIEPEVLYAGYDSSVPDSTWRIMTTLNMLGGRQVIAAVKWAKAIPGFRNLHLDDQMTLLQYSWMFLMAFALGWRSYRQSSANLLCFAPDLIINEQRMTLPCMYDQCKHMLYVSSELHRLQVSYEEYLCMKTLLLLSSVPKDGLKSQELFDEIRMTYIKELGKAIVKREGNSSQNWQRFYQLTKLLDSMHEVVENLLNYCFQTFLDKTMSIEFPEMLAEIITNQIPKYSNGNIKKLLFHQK
Description: (§1) A reporter cell line (ChagoK1 18:7:2 s4/GRE) was established by stable transfection of the human bronchogenic carcinoma cell line, ChaGo K1 (ATCC: HTB 168) with a MMTV-GRE-LacZ reporter construct. The generated cell line allows for identification of compounds showing agonist activity at the human glucocorticoid receptor (GR) via induction of LacZ gene expression. Ligand-activated GR binds to the Glucocorticoid Response Element (GRE) in the promoter of the LacZ gene and transcription is initiated. The resulting beta-galactosidase activity is measured through a colour reaction (change in absorbance).
Cryo-preserved ChagoK1 18:7:2 s4/GRE cells were suspended in RPMI medium with 10% FBS, 1% NEAA and 1% sodium pyruvate, and seeded as 50000 cells/200 ul/well in 96-well plates and cultured at 37° C. with 5% CO2 and 95% humidity for 24 hours. 1 μl compound was added at different concentrations to the cells and incubated for another 24 hours. Cells were washed once in PBS and lysed with 50 al of 0.1% Triton-X for 10 min at room temperature. […] The plates were measured at 420 nm for absorbance in a SpectraMax reader (Molecular Device).
The relative efficacy (% effect) of a compound is calculated based on the full agonist effect of dexamethasone: % Effect=((Sample abs−min abs)/(max abs−min abs))×100 […]

[2] = molecular target: T1, human glucocorticoid receptor (GR); assay: GRE Antagonist Assay (ChagoK1 18:7:2 s4/GRE reporter cell line, dexamethasone pre-stimulated); details: ChaGo-K-1, relative to full antagonist effect of Mifepristone (RU486), read-out: TA antagonist Observed max Effect at 1 μM (%)
Description: as §1, with “celline,” for “cell line,”, “antagonist” for “agonist”, “reduction” for “induction”, “Dexamethasone-activated” for “Ligand-activated”, “Antagonistic properties of compounds are assessed as” for “The resulting”, “intensity reduction from pre-stimulation with dexamethasone” for “activity is measured”
Cryo-preserved ChagoK1 18:7:2 s4/GRE cells were suspended in RPMI medium with 10% FBS, 1% NEAA and 1% sodium pyruvate, and seeded as 50000 cells/200 ul/well in 96-well plates and cultured at 37° C. with 5% CO2 and 95% humidity for 24 hr. Cells were pre-stimulated with 2 μl dexamethasone (70 nM final conc) for 4-5 hr, before addition of 1 μl compound at different concentrations and incubation for an additional 24 hr. […] The plates were measured at 420 nm for absorbance in a SpectraMax reader (Molecular Device).
The relative efficacy (% effect) of a compound is calculated based on the full antagonist effect of the reference compound Mifepristone (RU486): % Effect=((Sample abs−min abs)/(max abs−min abs))×100 […]

[3] = tested on: release of TNFα from whole blood stimulated with LPS; assay: In vitro human whole blood: inhibition of TNFα release after LPS stimulation; details: LPS 30 μg/mL, 18 hr, read-out: TNFα pIC50 (converted)
Experimental: The anti-inflammatory activity of compounds and prednisolone was determined in vitro by their ability to inhibit the release of TNFα from whole blood stimulated with LPS. Venous blood from human donors was collected and anti-coagulated with sodium heparin and transferred to a sterile polystyrene round bottomed plate (Corning) at 190 μL per well.
Compounds were prepared from 10 mM stock solutions in dimethylsulfoxide (DMSO, Sigma) by serially diluting 1/3 in DMSO to produce a master plate with the top concentration at 3.33 mM and the lowest concentration at 0.1 μM. Compounds from the master plate were added to the blood at 1 μL/well (1/200) dilution to give final concentrations ranging between […] and 0.5 nM. Control wells received 1 μL DMSO only and the final DMSO concentration in all wells was 0.5%. […]
TNFα protein levels were determined using an AlphaLISA hTNFα kit (Perkin Elmer) according to the manufacturer's instructions. […] The samples were read at 615 nm with excitation at 680 nm using an Envision plate reader. TNFα in the samples was determined by extrapolation from the standard curve and expressed as pg/mL.
The % inhibition of TNFα was determined by the equation: % inhibition=(1−(A−B)/(C−B))×100 Here, A=TNFα in LPS stimulated samples containing compound, B=TNFα in unstimulated samples. and C=TNFα in LPS stimulated samples without compound. […]

[4] = tested on: tyrosine aminotransferase (TAT) mRNA expression; assay: Tyrosine aminotransferase (TAT) mRNA expression in vitro assay in human primary hepatocytes; details: 18 hr, human cryopreserved primary hepatocytes, versus DMSO control, 2^-ΔΔCt, range and n in brackets
Experimental: The impact of test compounds on hyperglycemic events were assessed by looking at changes in mRNA expression of the gene encoding tyrosine aminotransferase (TAT), which is under direct regulation of the glucocorticoid receptor in human hepatocytes.
Human cryopreserved primary hepatocytes (BioreclamationIVT, M00995-P lot EPB) were plated to 24-well collagen I-coated plates (Becton Dickinson, 354408). Cells were allowed to attach for 4 hr before being challenged with test compounds overnight (18 hr). Cells were harvested and total RNA isolated using RNeasy Plus Mini Kit (Qiagen, 74136) followed by cDNA synthesis using High Capacity cDNA reverse transcription kit (Applied Biosystems, 4368813). Real-time RT PCR was performed on an Applied Biosystems 7500 PCR cycler, using Taqman primers for TAT (Life technologies, Hs00356930_ml) and the reference gene hypoxanthine phosphoribosyltransferase 1 (Life technologies, Hs99999909_ml).
Human cryopreserved primary hepatocytes were transferred in to pre-warmed (37° C.) plating medium (BioreclamationIVT, Z990003) and diluted to 0.7×10^6 viable cells/mL. […] Real-time RT PCR was carried out using TaqMan reagents (Life technologies) on the 7500 PCR cycler, and Ct-values for TAT gene expression was normalised to the control gene and expressed as fold change compared to DMSO control using the 2^−ΔΔCt method.

SMILES | Emax at 1 µM ([1]; ChaGo-K-1, at 1 μM, relative to full agonist effect of dexamethasone, read-out: TA agonist Observed max Effect at 1 μM (%)) | EC50 ([1]; transactivation, agonist mode, 24 h incubation, read-out: TA agonist pEC50 (converted)) | Emax at 1 µM [2] | IC50 [3] | Fold Change Tyrosine Aminotransferase Gene Expression Relative to Control (1 μM) [4]
CC(C)[C@H](NC(=O)C(C)(F)F)[C@H](Oc1ccc2c(cnn2-c2ccc(=O)n(C)c2)c1)c1ccccc1 [Example 1, 2,2-difluoro-N-[(1R,2S)-3-methyl-1-{[1-(1-methyl-6-oxo-1,6-dihydropyridin-3-yl)-1H-indazol-5-yl]oxy}-1-phenylbutan-2-yl]propanamide] | 39% | 12.6 nM | 70% | 631 nM | –
C[C@]12C=CC(=O)C=C1CC[C@@H]1[C@@H]2[C@@H](O)C[C@@]2(C)[C@H]1CC[C@]2(O)C(=O)CO [Prednisolone, reference compound] | – | – | – | 316 nM | 2.5 (1.4-4.2, n = 8)
